Source: patent publication US12497398B2, “Potent and selective covalent inhibitors of serine-arginine protein kinase (SRPK) 1 and SRPK2 and uses thereof” (DANA-FARBER CANCER INSTITUTE, INC., priority 2020, dated 2025)
Where two headings read alike, the source gives them in different places.

Columns and labels:
SRPK1 = SRPK1 (Homo sapiens, UniProt Q96SB4); assay: Z'-LYTE kinase assay, SRPK1 inhibition; format: biochemical
Method: (§1) IC50 values were determined by Z'-LYTE® kinase assay (catalog number PV3193, Invitrogen™) as described in Hatcher et al., Cell Chem. Biol. 25:460-470 (2018).

SRPK2 = SRPK2 (Homo sapiens, UniProt P78362); assay: Z'-LYTE kinase assay, SRPK2 inhibition; format: biochemical
Chain of SRPK2 (P78362 whole entry): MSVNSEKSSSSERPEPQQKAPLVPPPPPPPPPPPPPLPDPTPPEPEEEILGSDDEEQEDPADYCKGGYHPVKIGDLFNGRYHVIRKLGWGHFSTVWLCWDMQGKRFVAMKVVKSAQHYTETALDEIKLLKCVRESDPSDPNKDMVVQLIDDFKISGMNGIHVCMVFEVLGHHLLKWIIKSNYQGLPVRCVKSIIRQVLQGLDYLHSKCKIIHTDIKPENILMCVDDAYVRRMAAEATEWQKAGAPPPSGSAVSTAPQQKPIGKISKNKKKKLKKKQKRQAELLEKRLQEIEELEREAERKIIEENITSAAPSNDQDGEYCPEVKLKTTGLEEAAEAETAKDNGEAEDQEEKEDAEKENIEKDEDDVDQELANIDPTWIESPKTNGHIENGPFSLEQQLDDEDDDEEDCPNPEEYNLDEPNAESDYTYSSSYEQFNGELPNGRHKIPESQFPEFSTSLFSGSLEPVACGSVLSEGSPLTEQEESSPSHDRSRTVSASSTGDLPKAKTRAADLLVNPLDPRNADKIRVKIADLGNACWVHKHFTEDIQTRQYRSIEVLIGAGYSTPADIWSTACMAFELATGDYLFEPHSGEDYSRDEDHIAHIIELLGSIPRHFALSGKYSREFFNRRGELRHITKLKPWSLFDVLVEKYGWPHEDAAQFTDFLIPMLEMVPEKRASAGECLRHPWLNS
Method: as §1

[1] = Z'-LYTE kinase assay, read-out: IC50 (nM) SRPK1
[2] = Z'-LYTE kinase assay, read-out: IC50 (nM) SRPK2

Chain of SRPK1 (Q96SB4 whole entry): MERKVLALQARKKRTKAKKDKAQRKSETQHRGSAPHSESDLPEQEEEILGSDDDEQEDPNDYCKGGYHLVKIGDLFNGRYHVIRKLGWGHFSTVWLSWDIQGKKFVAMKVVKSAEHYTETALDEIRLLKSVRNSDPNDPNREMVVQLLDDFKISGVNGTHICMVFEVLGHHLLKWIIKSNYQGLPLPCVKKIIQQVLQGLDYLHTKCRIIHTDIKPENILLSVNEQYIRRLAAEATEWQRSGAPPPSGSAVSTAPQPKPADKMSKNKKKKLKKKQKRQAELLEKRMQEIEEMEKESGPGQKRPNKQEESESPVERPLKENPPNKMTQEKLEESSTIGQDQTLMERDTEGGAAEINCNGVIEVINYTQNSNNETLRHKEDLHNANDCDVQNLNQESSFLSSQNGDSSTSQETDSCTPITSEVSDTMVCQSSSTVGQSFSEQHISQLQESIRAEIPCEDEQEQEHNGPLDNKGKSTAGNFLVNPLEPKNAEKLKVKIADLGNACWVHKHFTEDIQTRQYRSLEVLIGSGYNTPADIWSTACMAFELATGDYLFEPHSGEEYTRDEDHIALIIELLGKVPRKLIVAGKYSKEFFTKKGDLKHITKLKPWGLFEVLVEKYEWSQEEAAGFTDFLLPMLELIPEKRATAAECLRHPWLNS

Compound: CCc1cc2c(=O)c3c4ccc(C#N)cc4[nH]c3n(C(C)C)c2cc1-c1cccc(S(=O)(=O)F)c1 [Compound 1, 3-(8-cyano-2-ethyl-5-isopropyl-11-oxo-6,11-dihydro-5H-indolo[2,3-b]quinolin-3-yl)benzenesulfonyl fluoride]
- IC50 (SRPK1; [1]): 6 nM
- IC50 (SRPK2; [2]): 9 nM

Compound: COc1cc2c(=O)c3c4ccc(C#N)cc4[nH]c3n(C(C)C)c2cc1-c1cccc(S(=O)(=O)F)c1 [Compound 2, 3-(8-cyano-5-isopropyl-2-methoxy-11-oxo-6,11-dihydro-5H-indolo[2,3-b]quinolin-3-yl)benzenesulfonyl fluoride]
- IC50 (SRPK1): 4 nM
- IC50 (SRPK2): 5 nM

Compound: COc1cc2c(=O)c3c4ccc(C#N)cc4[nH]c3n(C(C)C)c2cc1-c1cncc(S(=O)(=O)F)c1 [Compound 3, 5-(8-cyano-5-isopropyl-2-methoxy-11-oxo-6,11-dihydro-5H-indolo[2,3-b]quinolin-3-yl)pyridine-3-sulfonyl fluoride]
- IC50 (SRPK1; [1]): 6 nM
- IC50 (SRPK2; [2]): 5 nM
